Data set [1] can be described thus: Aqueous solubility of the compound in water at 1 mg exposed to ultrasound for 1 hr measured after 30 mins by UV-spectrophotometric method. It counts as physicochemical. The conditions noted are these: for solubility at 1 h: water.
In data set [2] the test system is RAW264.7. The experiment in a line: Anti-inflammatory activity in mouse RAW264.7 cells assessed as inhibition of LPS-induced IL-6 production at 20 uM by ELISA. It counts as functional. Background: In an ELISA, binding on a coated surface is turned into a signal by an enzyme label.
Data set [3] has as its system RAW264.7. In words: Anti-inflammatory activity in mouse RAW264.7 cells assessed as inhibition of LPS-induced TNFalpha production at 20 uM by ELISA. It counts as functional.
Data set [4] has as its target Transcription factor p65 (Mus musculus) (UniProt Q04207). The experiment in a line: Inhibition of NF-kB p65 in mouse RAW264.7 cells assessed as reduction in LPS-induced COX2 expression at 0.3 ug/ml preincubated for 12 hrs followed by LPS stimulation for 3 hrs by Western blot method. It counts as cell-based. A general note: A western blot detects proteins with antibodies after separation by electrophoresis.

Data set [5] has the same target. In words: Inhibition of LPS-induced NF-kB p65 activation in mouse RAW264.7 cells at 0.3 ug/ml preincubated for 12 hrs followed by LPS stimulation for 3 hrs by DAPI staining based inverted fluorescence microscopic method. It counts as cell-based.
The target is the same in data set [6]. The experiment in a line: Inhibition of NF-kB p65 in mouse RAW264.7 cells assessed as reduction in LPS-induced iNOS expression at 0.3 ug/ml preincubated for 12 hrs followed by LPS stimulation for 3 hrs by Western blot method. It counts as cell-based.
The target is the same in data set [7]. The experiment in a line: Inhibition of LPS-induced NF-kB p65 phosphorylation in mouse RAW264.7 cells at 0.3 ug/ml preincubated for 12 hrs followed by LPS stimulation for 3 hrs by Western blot method. It counts as cell-based.

In brackets after ≈: the same amount, converted by molar mass. Activity calls are given as the source filed them. The calls are words filed in the database; no cut-off is given here.

Transcription factor p65 (Mus musculus), sequence (Q04207 whole entry): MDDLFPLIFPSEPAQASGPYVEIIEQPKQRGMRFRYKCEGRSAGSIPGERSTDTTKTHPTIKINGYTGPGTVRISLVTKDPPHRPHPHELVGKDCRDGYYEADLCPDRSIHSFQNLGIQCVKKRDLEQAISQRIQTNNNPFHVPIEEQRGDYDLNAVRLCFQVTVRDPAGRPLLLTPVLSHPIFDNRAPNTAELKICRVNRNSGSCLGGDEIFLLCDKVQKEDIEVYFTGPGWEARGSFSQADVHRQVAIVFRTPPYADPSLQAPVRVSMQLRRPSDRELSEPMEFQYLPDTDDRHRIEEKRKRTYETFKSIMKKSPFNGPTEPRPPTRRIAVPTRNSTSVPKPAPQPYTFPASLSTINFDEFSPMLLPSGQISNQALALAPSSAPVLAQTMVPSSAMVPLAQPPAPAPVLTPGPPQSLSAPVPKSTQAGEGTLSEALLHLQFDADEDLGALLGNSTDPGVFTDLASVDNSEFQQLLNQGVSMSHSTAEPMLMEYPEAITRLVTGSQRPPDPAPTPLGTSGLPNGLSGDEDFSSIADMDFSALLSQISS

By solubility is commonly meant the concentration that dissolves in the medium under given conditions. Low values mean a poorly soluble substance, high ones a readily soluble substance. In data set [1], `COc1ccccc1/C=C/C=C/C(=O)c1ccccc1Cl` came in with a solubility at 1 h of 9.45 µg/mL (≈ 31.6 µM). Same read-out and setting: with `CN(C)c1ccc(/C=C/C=C/C(=O)c2ccccc2Cl)cc1` the figure was 7.55 µg/mL (≈ 24.2 µM); with `CC(C)c1ccc(C(=O)/C=C/C=C/c2ccccc2)cc1`, 6.78 µg/mL (≈ 24.5 µM). Take `COc1ccccc1/C=C/C=C/C(=O)c1cc(OC)c(OC)c(OC)c1`: the solubility at 1 h in data set [1] is 25.9 µg/mL (≈ 73.1 µM). Moreover, the inhibition entry in data set [2] and in data set [3] was “Active” each time. Take `Cc1ccc(S(=O)(=O)/C=C/C#N)cc1`: the inhibition entry in data set [4], in data set [5], in data set [6] and in data set [7] was “Active” each time. As to `COc1cc(/C=C/C(=O)CC(=O)/C=C/c2ccc(O)c(OC)c2)ccc1O` [CURCUMIN], in data set [1] (1 h), the solubility worked out at 12.87 µg/mL (≈ 34.9 µM). Also, the inhibition entry in data set [2] and in data set [3] was “Active” throughout. The molecule `O=C(/C=C/C=C/c1ccccc1)c1ccc([N+](=O)[O-])cc1` yielded a solubility at 1 h in data set [1] of 13.2 µg/mL (≈ 47.3 µM). In data set [1], `O=C(/C=C/C=C/c1ccccc1)c1ccc(F)cc1F` had a solubility at 1 h of 7.86 µg/mL (≈ 29.1 µM). Same read-out and setting: with `O=C(/C=C/C=C/c1ccccc1)c1ccccc1Cl` the figure was 8.2 µg/mL (≈ 30.5 µM). `COc1cc(C(=O)/C=C/C=C/c2ccccc2)cc(OC)c1OC` showed a solubility at 1 h in data set [1] of 20.3 µg/mL (≈ 62.7 µM). Moreover, the inhibition result in data set [2] and in data set [3] was “Active” throughout. In turn, `COc1ccccc1/C=C/C=C/C(=O)c1ccc([N+](=O)[O-])cc1` came in with a solubility at 1 h in data set [1] of 13.9 µg/mL (≈ 45.1 µM).

For the origin of these results see ChEMBL document CHEMBL4007478, “Diarylpentadienone derivatives (curcumin analogues): Synthesis and anti-inflammatory activity” (Bioorg Med Chem Lett, 2017).
